The target of this experiment is T1, Lanosterol 14-alpha demethylase (Mycobacterium tuberculosis (strain CDC 1551 / Oshkosh), UniProt P9WPP8).
T1 sequence (P9WPP8 whole entry): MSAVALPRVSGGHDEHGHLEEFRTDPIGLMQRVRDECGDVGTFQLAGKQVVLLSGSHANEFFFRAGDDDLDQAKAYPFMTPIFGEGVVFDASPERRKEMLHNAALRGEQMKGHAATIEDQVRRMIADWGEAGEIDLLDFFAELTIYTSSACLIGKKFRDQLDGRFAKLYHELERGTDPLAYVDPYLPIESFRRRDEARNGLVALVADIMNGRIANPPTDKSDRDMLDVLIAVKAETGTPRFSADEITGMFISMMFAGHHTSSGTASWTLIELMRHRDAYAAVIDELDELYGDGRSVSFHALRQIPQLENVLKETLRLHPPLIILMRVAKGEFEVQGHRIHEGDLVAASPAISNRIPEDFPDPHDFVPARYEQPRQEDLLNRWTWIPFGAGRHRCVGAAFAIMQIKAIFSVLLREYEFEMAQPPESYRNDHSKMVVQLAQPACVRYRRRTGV
The experiment is described as follows: Ligand Binding Assay. To be noted: pH 7.5; 37 °C. The text has this: The assay was developed based on the optical spectral property of P450 enzyme to elicit both type I and type II spectral changes (350 nm through 450 nm). The concentration dependence of the changes allows the binding affinities of the ligands to be estimated. Titration data were linearized by plotting S0/deltaA against S0, where S0 is the total concentration of a ligand and deltaA is the change in absorption. The equilibrium dissociation constant (Kd) was extrapolated from the intercept of the linear plot with the S0 axis.
As a reminder, the Kd is the equilibrium constant for the complex coming apart. A low value points to tighter binding. The molecule `c1ccc(-c2c[nH]cn2)cc1` returned a Kd of 1300 µM.

`NCC(=O)N1c2ccccc2SC2C=CC=CC21` (stereo not drawn) [1-(10,10a-dihydro-4aH-phenothiazin-10-yl)-2-aminoethan-1-one] displayed a Kd of 7.5 µM.

`O=C1c2cc(O)ccc2-c2ccc(O)cc21` [2,7-Dihydroxy-9-fluorenone] showed a Kd of 37.5 µM.

On to `CCC1(C)CC(CCN)(c2ccc(OC)cc2)CCO1` (stereo not drawn) [2-[2-ethyl-4-(4-methoxyphenyl)-2-methyloxan-4-yl]ethan-1-amine], for which binding was characterised by a dissociation constant (Kd) of 7.5 µM.

Molecule `COc1ccccc1C(CCN)c1ccco1` (stereo not drawn) [3-furan-2-yl-3-(2-methoxyphenyl)propan-1-amine] registered a Kd of 7.5 µM.

`O=C(Nc1ccncc1)C1(c2ccccc2)CCOCC1` [4-phenyl-N-pyridin-4-yltetrahydro-2H-pyran-4-carboxamide]: the Kd came out at 7.5 µM.

In the case of `C[C@]12CCC3c4ccc(O)cc4CCC3C1C[C@@H](O)[C@@H]2O` (stereo partly drawn) [Epiestriol], binding was put at a Kd of 100 µM.

Turning to `Nc1ccc(NS(=O)(=O)c2ccc(Cl)cc2)cc1` [N-(4-aminophenyl)-4-chlorobenzene-1-sulfonamide], the Kd came out at 7.5 µM.

For the origin of these results see BindingDB's records for doi:10.1128/AAC.00311-07 (University of California San Francisco, 2007).
